13 molecules from patent publication US12503436B2, “Compounds and compositions for treating conditions associated with STING activity” (NOVARTIS PHARMA AG, priority 2021, dated 2025) can be followed below.

For this test, the target named is STING (Homo sapiens, UniProt Q86WV6, G230A/H232R/R293Q/R71H). In words: STING reporter assay in THP1-Dual KO-IFNAR2 cells (2′3′cGAMP stimulation, luciferase reporter). Type of test: cell-based. Conditions: 15 μM 2′3′cGAMP stimulation, 24 h, read-out: Pharmaron, THP1_IFNAR2 STING 24 h Luci Normalized: GeoMean EC50. Summed up:
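EC50 from secreted luciferase (QUANTI-Luc Plus luminescence of supernatant) after 24 h at 37 °C, 5% CO2. Cells: THP1-Dual KO-IFNAR2, treated with compound (0.0017-100 μM final) plus lipofected 2′3′cGAMP at 15 μM final.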

STING, sequence (Q86WV6 whole entry R71H/G230A/H232R/R293Q): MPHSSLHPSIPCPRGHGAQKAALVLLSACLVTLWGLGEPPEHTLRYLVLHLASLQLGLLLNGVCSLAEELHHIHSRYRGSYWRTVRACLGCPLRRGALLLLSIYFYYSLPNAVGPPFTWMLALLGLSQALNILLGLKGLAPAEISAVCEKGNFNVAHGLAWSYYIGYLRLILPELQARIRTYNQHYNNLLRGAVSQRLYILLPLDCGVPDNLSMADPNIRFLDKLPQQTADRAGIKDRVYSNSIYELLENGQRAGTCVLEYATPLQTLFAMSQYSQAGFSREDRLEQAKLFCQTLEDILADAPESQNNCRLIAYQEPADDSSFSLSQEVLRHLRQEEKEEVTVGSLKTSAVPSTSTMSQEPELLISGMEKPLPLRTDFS

Regarding `CC1(F)CC(C(=O)Nc2c[nH]c3ccc(OCC[C@@H]4C[C@@H]5CN(CC(F)(F)F)C[C@@H]5C4)cc23)C1` (stereo partly drawn) [Compound 151, 3-fluoro-3-methyl-N-(5-(2-((3aR,5r,6aS)-2-(2,2,2-trifluoroethyl)octahydrocyclopenta[c]pyrrol-5-yl)ethoxy)-1H-indol-3-yl)cyclobutane-1-carboxamide], the 50% effective concentration (EC50) lay within 0.2 to 1 µM.

For the molecule `O=C(Nc1c[nH]c2ccc(OCc3ccc(C(F)(F)F)cc3)cc12)C1CC1` [Compound 317, N-(5-((4-(trifluoromethyl)benzyl)oxy)-1H-indol-3-yl)cyclopropanecarboxamide], the EC50 lay within 0.2 to 1 µM.

Turning to `CC(=O)Nc1c[nH]c2ccc(CCOC3CCN(CC(F)(F)F)CC3)cc12` [Compound 288, N-(5-(2-((1-(2,2,2-trifluoroethyl)piperidin-4-yl)oxy)ethyl)-1H-indol-3-yl)acetamide], the EC50 was in the range of 5 to 100 µM.

Consider `CC(=O)Nc1c[nH]c2ccc(CCOc3cnc4cccc(Cl)c4c3)cc12` [Compound 560, N-(5-(2-((5-chloroquinolin-3-yl)oxy)ethyl)-1H-indol-3-yl)acetamide], for which the EC50 lay in the range of 1 to 5 µM.

For `CC(=O)Nc1c[nH]c2ccc(OCCc3ccc(C(F)(F)F)cc3)nc12` [Compound 248, N-(5-(4-(trifluoromethyl)phenethoxy)-1H-pyrrolo[3,2-b]pyridin-3-yl)acetamide], the EC50 lay within 1 to 5 µM.

With `CC1(C(=O)Nc2c[nH]c3ccc(OCC[C@@H]4C[C@@H]5CN(CC(F)(F)F)C[C@@H]5C4)cc23)CCOCC1` [Compound 161, 4-methyl-N-(5-(2-((3aR,5r,6aS)-2-(2,2,2-trifluoroethyl)octahydrocyclopenta[c]pyrrol-5-yl)ethoxy)-1H-indol-3-yl)tetrahydro-2H-pyran-4-carboxamide], the EC50 fell in the range of 0.04 to 0.2 µM.

As to `O=C(Nc1c[nH]c2ccc(OCCc3ccc(C(F)(F)F)cc3)cc12)[C@H]1C[C@@H](CO)C1` [Compound 533, cis-3-(hydroxymethyl)-N-(5-(4-(trifluoromethyl)phenethoxy)-1H-indol-3-yl)cyclobutane-1-carboxamide], the EC50 is 0.04 to 0.2 µM.

`CC1(C)CC(C(=O)Nc2c[nH]c3ccc(O[C@H]4C[C@@H](c5ccc(C(F)(F)F)cc5)C4)cc23)C1` [Compound 361, 3,3-dimethyl-N-(5-(cis-3-(4-(trifluoromethyl)phenyl)cyclobutoxy)-1H-indol-3-yl)cyclobutane-1-carboxamide]: the EC50 was 0.04 to 0.2 µM.

On to `C[C@@H]1OC[C@H]1C(=O)Nc1c[nH]c2ccc(OCC[C@@H]3C[C@@H]4CN(CC(F)(F)F)C[C@@H]4C3)cc12` [Compound 509, (2S,3R)-2-methyl-N-(5-(2-((3aR,5r,6aS)-2-(2,2,2-trifluoroethyl)octahydrocyclopenta[c]pyrrol-5-yl)ethoxy)-1H-indol-3-yl)oxetane-3-carboxamide], for which the EC50 was 1 to 5 µM.

As for `CC1(C(=O)Nc2c[nH]c3ccc(OC[C@@H]4C[C@@H]5CN(CC(F)(F)F)C[C@@H]5C4)cc23)COC1` [Compound 479, 3-methyl-N-(5-(((3aR,5r,6aS)-2-(2,2,2-trifluoroethyl)octahydrocyclopenta[c]pyrrol-5-yl)methoxy)-1H-indol-3-yl)oxetane-3-carboxamide], the EC50 lay within 0.04 to 0.2 µM.

Take `CC1(C(=O)Nc2c[nH]c3ccc(O[C@H]4C[C@H](c5ccc(C(F)(F)F)cc5)C4)cc23)CC1` [Compound 261, 1-methyl-N-(5-(trans-3-(4-(trifluoromethyl)phenyl)cyclobutoxy)-1H-indol-3-yl)cyclopropane-1-carboxamide]: the EC50 is 0.04 to 0.2 µM.

For `C[C@H]1C[C@@H](C(=O)Nc2c[nH]c3ccc(OCc4ccc(C(F)(F)F)cc4)cc23)C1` [Compound 321, cis-3-methyl-N-(5-((4-(trifluoromethyl)benzyl)oxy)-1H-indol-3-yl)cyclobutane-1-carboxamide], the EC50 was 0.2 to 1 µM.

As to `CC(C)(C)C(=O)Nc1c[nH]c2ccc(OCCc3ccc(C(F)(F)F)cc3)cc12` [Compound 186, N-(5-(4-(trifluoromethyl)phenethoxy)-1H-indol-3-yl)pivalamide], the EC50 was in the range of 0.2 to 1 µM.

As a reminder, the EC50 is the concentration giving half of the maximal effect.
